# Experimental data: patent US20130150399A1, “INHIBITORS OF THE UNFOLDED PROTEIN RESPONSE AND METHODS FOR THEIR USE” (The Board of Trustees of the Leland Stanford Junior …, priority 2006, published 2013)
# Columns and labels:
# Assay type in all cases: cell-based, human
# [1] = system: XBP-luciferase reporter; test: XBP-luciferase reporter assay under Tm or hypoxia, HT1080 cells
# Experimental: HT1080 cells stably expressing the XBP-luciferase construct were grown in 60 mm dishes to 60-70% confluency. Following hypoxia treatment, cells were washed twice with PBS, lysed in 400 μl 1× reporter lysis buffer (RLB) (Promega, Madison Wis.) for 30 min at 24° C. Lysates (100 μl) were mixed with an equal volume of luciferase substrate (Promega), and assayed using a luminometer. For 5×-UPRE-luciferase reporter assays, cells were co-transfected with the appropriate reporter plasmid and a control plasmid (pSV40-beta-gal) using Lipofectamine 2000 (Invitrogen, San Diego, Calif.). Twenty-four hours after transfection, fresh media was added, and cells were treated with Tm or shifted to hypoxia. After treatment, cells were lysed in 1×RLB and analyzed for luciferase activity as described above. Beta-galactosidase activity was determined using the beta-galactosidase enzyme assay system (Promega).
# A. XBP-luciferase reporter construct. Firefly luciferase was inserted downstream of the IRE1α splice site in human XBP-1 to enable the conditional translation of luciferase under ER stress in an IRE1α-dependent manner. B. Selective inhibition of the XBP-luciferase reporter by irestatin 9389. HT1080 human fibrosarcoma cells stably expressing the XBP-luciferase reporter or CMV-luciferase were cultured in the presence of Tm (4 μg/ml) and Tg (0.4 μM) and irestatin 9389 at the indicated concentrations. After 24 hours, luciferase activity was analyzed in an automated plate reader. For each cell line, values are expressed as the percent inhibition of the median for Tm/Tg-treated wells, corrected for background. C. Structure of irestatin 9389. D. XBP-luciferase reporter assay. HT1080 cells stably expressing the XBP-luciferase reporter were exposed to Tm (4 μg/ml) for 24 hours or hypoxia (0.1% oxygen) for 24 or 48 hours, in the presence of DMSO or irestatin 9389 (1 μM) as indicated. Values are expressed as the fold increases over uninduced levels. E. 5×-UPRE reporter assay. HT1080 cells were co-transfected with 5×-UPRE luciferase and SV40-beta-gal reporter plasmids, followed by exposure to Tm or hypoxia as in D. For each condition, luciferase activity is normalized to beta-galactosidase expression levels as an internal control for transfection efficiency. F. Western immunoblot analysis of XBP-1s. HT1080 cells were left untreated (lane 2) or exposed to Tm (4 μg/ml) for 20 hours in the presence of DMSO vehicle (lane 1) or the indicated irestatins (2 μM; lanes 3-6). […] Cells were harvested, lysed, and analyzed by immunoblotting with antisera specific for HIF-1α (top), XBP-1s (middle) or actin (bottom). […] Total RNA was analyzed by Northern blotting using radiolabeled probes specific for P58^IPK or DER-1. […]
# [2] = system: RPMI 8226 myeloma cells; test: Cell proliferation assay, RPMI 8226; conditions: dose-dependent
# [3] = system: XBP1-luciferase reporter; test: XBP-luciferase reporter high throughput screen / IRE IC50 (tunicamycin + thapsigargin induced); conditions: Assay IRE IC50; Conc 20 uM
# Experimental: Specifically, HT1080 fibrosarcoma cells stably transfected with the unspliced XBP-1-luciferase reporter construct (3000/well) were plated onto a solid white 384 well microplate with a multidrop dispenser (40 μL per well). The plates were then placed into an automated incubator. After 24 hours of growth, a mixture of tunicamycin (1 μg/ml) and thapsigargin (100 nM) inducers were added, and candidate compounds were then added to the plates. After 24 hours, luciferase reagent (10 μl) was added to each well and the plates were read in a Molecular Devices Analyst GT (0.2 second read per well).
# As described above in Example 2, HT1080 fibrosarcoma cells stably expressing the XBP-luciferase reporter were plated in a 384 well microplate (4000 cells/well). After 24 hours, cells were treated with a mixture of tunicamycin (4 μg/ml) and thapsigargin (0.4 μM), followed by the addition of one compound per well (10 μM). We screened a total of 66,000 diverse molecules obtained from Specs, Chembridge and ChemRX. Twenty-four hours post-induction, BriteGlo luciferase substrate (10 μl) was added to each well and the signal intensity determined in a plate reader (0.2 s read per well). […] We retested 431 compounds from the initial screen, and selected 58 compounds for additional analysis, including calculation of IC50 values and inhibition of a CMV-luciferase reporter.
# Compounds of the screening library with structural similarity to compound 9389 (see Table 1) have been identified and in some cases further assayed for inhibitory activity. Compounds listed with “IC50” values were assayed secondarily after initially being identified in the high throughput screen. Each value represents a separate calculation of reporter inhibition based upon the high throughput robotic screening platform. The actual IC50 values are calculated and represent an estimate of the potency of each compound. This assay is not considered to be accurate below a concentration of 10 nM. Compounds classified with “mild” activity inhibited the XBP1-luciferase reporter by 10-30%. Compounds classified with “moderate” activity inhibited the XBP1-luciferase reporter by 30-75%. Compounds classified with “potent” activity inhibited the XBP1-luciferase reporter by 75-100%. Compounds classified with “undetected” activity inhibited the XBP1-luciferase reporter by less than 10% under the defined conditions.
smiles,measurement,setting,value
Cc1csc(NC(=O)CSc2nc3c(c(C(F)(F)F)c2C#N)CCC3)n1 [Compound 9389],hypoxia-induced increase of XBP-luciferase activity,"[1]; 1 μM, 48 hours of hypoxia (control 95-fold)",robustly inhibited this response
same,activation of the XBP-luciferase reporter under hypoxia,"[1]; 1 μM, hypoxia (<0.1% oxygen) for 24 or 48 hours",diminished activation
same,inhibition at 1 µM,"[1]; Homo sapiens, HT-1080, irestatin 9389 1 μM, Tm 24 hours, read-out: inhibition of Tm-mediated activation of the XBP-luciferase reporter",> 90%
same,growth of RPMI 8226,[2],strongly inhibited the growth
same,% Inh,[3],100.3%
